# Source: PubChem BioAssay AID330 (DTP/NCI, 2004)
# Values joined by “and” are separate entries in the source; they are usually repeats but may differ in a detail not shown here. Equal values may be shown once. Inconclusive results and toxic doses are left out.
# Test system: P388 leukemia ip, CD2F1 mice, survival T/C
# Assay: NCI In Vivo Anticancer Drug Screen. Data for tumor model P388 Leukemia (intraperitoneal) in CD2F1 (CDF1) mice
# Conditions: endpoint: median survival time, higher = longer survival
# Outline: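 Mice carrying the transplanted tumor received test compound or vehicle. Survival was recorded in each group, and the value is the treated-group measurement divided by that of the vehicle-treated control group.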
# [1] = dose: 50.0 mg/kg/injection, schedule: Q01DX009 (ip), vehicle: Klucel (hydroxypropylcellulose) (HPC)
# [2] = dose: 100.0 mg/kg/injection, schedule: Q01DX009 (ip), vehicle: Klucel (hydroxypropylcellulose) (HPC)
# [3] = dose: 200.0 mg/kg/injection, schedule: Q01DX009 (ip), vehicle: Klucel (hydroxypropylcellulose) (HPC)
# [4] = dose: 50.0 mg/kg/injection, schedule: Q01DX005 (ip), vehicle: saline with Tween-80
# [5] = dose: 100.0 mg/kg/injection, schedule: Q01DX005 (ip), vehicle: saline with Tween-80
# [6] = dose: 200.0 mg/kg/injection, schedule: Q01DX005 (ip), vehicle: saline with Tween-80
# [7] = dose: 60.0 mg/kg/injection, schedule: Q01DX005 (ip), vehicle: saline
# [8] = dose: 60.0 mg/kg/injection, schedule: Q01DX005 (ip), vehicle: saline with Tween-80
# [9] = dose: 120.0 mg/kg/injection, schedule: Q01DX005 (ip), vehicle: saline with Tween-80
# [10] = dose: 240.0 mg/kg/injection, schedule: Q01DX005 (ip), vehicle: saline with Tween-80
# [11] = dose: 50.0 mg/kg/injection, schedule: Q01DX009 (ip), vehicle: saline with Tween-80
# [12] = dose: 100.0 mg/kg/injection, schedule: Q01DX009 (ip), vehicle: saline with Tween-80
structure (smiles),measurement,setting,value
CCCCCCCCCCCN1CCS(=O)(=O)CC1,T/C,[1],100 % of control
same,T/C,[2],98 % of control
same,T/C,[3],94 % of control
COc1ccc(S(=O)(=O)N/N=C/c2cccc([N+](=O)[O-])c2O)cc1,T/C,[4],100 % of control
same,T/C,[5],100 % of control
same,T/C,[6],95 % of control
CN(C)CCSCC(=O)Nc1ccccc1Cl,T/C,[7],103 % of control
same,T/C,"dose: 120.0 mg/kg/injection, schedule: Q01DX005 (ip), vehicle: saline",106 % of control
same,T/C,"dose: 240.0 mg/kg/injection, schedule: Q01DX005 (ip), vehicle: saline",106 % of control
NC(=O)c1[nH]ccc1NCc1ccccc1,T/C,[4],97 % of control
same,T/C,[5],88 % of control
same,T/C,[6],97 % of control
CCOC(=O)CN=CC1CCC=CO1 (stereo not drawn),T/C,"dose: 100.0 mg/kg/injection, schedule: Q04DX003 (ip), vehicle: saline with Tween-80",100 % of control
same,T/C,"dose: 200.0 mg/kg/injection, schedule: Q04DX003 (ip), vehicle: saline with Tween-80",100 % of control
same,T/C,"dose: 400.0 mg/kg/injection, schedule: Q04DX003 (ip), vehicle: saline with Tween-80",100 % of control
CC1(C)C(N2CCOCC2)C(c2ccccc2)S1(=O)=O (stereo not drawn),T/C,"dose: 50.0 mg/kg/injection, schedule: Q01DX001 (ip), vehicle: saline with Tween-80",91 % of control
same,T/C,"dose: 100.0 mg/kg/injection, schedule: Q01DX001 (ip), vehicle: saline with Tween-80",100 % of control
same,T/C,"dose: 200.0 mg/kg/injection, schedule: Q01DX001 (ip), vehicle: saline with Tween-80",95 % of control
O=c1[nH]c(=O)c2sc3ncccc3c2[nH]1,T/C,"dose: 6.25 mg/kg/injection, schedule: Q01DX009 (ip), vehicle: saline",119 % of control
same,T/C,"dose: 12.5 mg/kg/injection, schedule: Q01DX009 (ip), vehicle: saline",100 % of control
same,T/C,"dose: 25.0 mg/kg/injection, schedule: Q01DX009 (ip), vehicle: saline",101 % of control
C/C=C1/CN(C)C2Cc3c([nH]c4ccccc34)C(c3cc4[nH]c5c(c4cc3OC)CCN3CC4CC(CC)C3C5(COC(=O)c3ccc(OC)c(OC)c3)C4)CC1C2C(=O)OC (stereo not drawn),T/C,"dose: 6.25 mg/kg/injection, schedule: Q01DX001 (ip), vehicle: Klucel (hydroxypropylcellulose) (HPC)",107 % of control
same,T/C,"dose: 12.5 mg/kg/injection, schedule: Q01DX001 (ip), vehicle: Klucel (hydroxypropylcellulose) (HPC)",106 % of control
same,T/C,"dose: 25.0 mg/kg/injection, schedule: Q01DX001 (ip), vehicle: Klucel (hydroxypropylcellulose) (HPC)",106 % of control and 113 % of control
same,T/C,"dose: 50.0 mg/kg/injection, schedule: Q01DX001 (ip), vehicle: Klucel (hydroxypropylcellulose) (HPC)",104 % of control
same,T/C,"dose: 100.0 mg/kg/injection, schedule: Q01DX001 (ip), vehicle: Klucel (hydroxypropylcellulose) (HPC)",100 % of control
same,T/C,"dose: 200.0 mg/kg/injection, schedule: Q01DX001 (ip), vehicle: Klucel (hydroxypropylcellulose) (HPC)",100 % of control
COc1cc2c(cc1OC)[Se](Br)(Br)c1cc(OC)c(OC)cc1[Se]2,T/C,[8],107 % of control
same,T/C,[9],98 % of control
same,T/C,[10],100 % of control
CC(C)=CC(=O)OC1C2C(C)=CC(=O)C(O)C2(C)C2C3(O)OCC24C(CC(=O)OC14)C(C)C3O (stereo not drawn),T/C,"dose: 0.5 mg/kg/injection, schedule: Q01DX009 (ip), vehicle: distilled water + Tween-80",161 % of control
same,T/C,"dose: 1.0 mg/kg/injection, schedule: Q01DX009 (ip), vehicle: distilled water + Tween-80",169 % of control and 198 % of control
same,T/C,"dose: 2.0 mg/kg/injection, schedule: Q01DX009 (ip), vehicle: distilled water + Tween-80",180 % of control and 191 % of control
CC1OC(C)(c2ccc(Cl)c(O)c2)OC1C (stereo not drawn),T/C,[8],100 % of control
same,T/C,[9],102 % of control
same,T/C,[10],102 % of control
CC1C[As+](c2ccccc2)(c2ccccc2)CC(C)N1C.[O-][Cl+3]([O-])([O-])[O-] (stereo not drawn),T/C,"dose: 25.0 mg/kg/injection, schedule: Q01DX009 (ip), vehicle: saline with Tween-80",100 % of control
same,T/C,[11],104 % of control
same,T/C,[12],106 % of control
Cc1ccc(S(=O)(=O)N(CCc2ccccc2)S(=O)(=O)c2ccc(C)cc2)cc1,T/C,[1],94 % of control
same,T/C,[2],100 % of control
same,T/C,[3],109 % of control
CCC(=N)C(c1ccccc1)(c1ccccc1)C(C)CN(C)C (stereo not drawn),T/C,"dose: 15.0 mg/kg/injection, schedule: Q01DX005 (ip), vehicle: saline",101 % of control
same,T/C,"dose: 30.0 mg/kg/injection, schedule: Q01DX005 (ip), vehicle: saline",101 % of control
same,T/C,[7],100 % of control
C[n+]1cccc(C(N)=O)c1,T/C,"dose: 25.0 mg/kg/injection, schedule: Q01DX009 (ip), vehicle: water",102 % of control
same,T/C,"dose: 50.0 mg/kg/injection, schedule: Q01DX009 (ip), vehicle: water",112 % of control
same,T/C,"dose: 100.0 mg/kg/injection, schedule: Q01DX009 (ip), vehicle: water",112 % of control
same,T/C,"dose: 200.0 mg/kg/injection, schedule: Q01DX009 (ip), vehicle: water",110 % of control
same,T/C,"dose: 400.0 mg/kg/injection, schedule: Q01DX009 (ip), vehicle: water",100 % of control
CCOC(=O)c1sc2nc(C)cc(C)c2c1N,T/C,"dose: 6.25 mg/kg/injection, schedule: Q01DX005 (ip), vehicle: saline with Tween-80",95 % of control
same,T/C,"dose: 12.5 mg/kg/injection, schedule: Q01DX005 (ip), vehicle: saline with Tween-80",100 % of control
same,T/C,"dose: 25.0 mg/kg/injection, schedule: Q01DX005 (ip), vehicle: saline with Tween-80",98 % of control
CCCC1OC(C)(Cc2ccccc2)OCC1CC (stereo not drawn),T/C,"dose: 100.0 mg/kg/injection, schedule: Q01DX009 (ip), vehicle: saline",103 % of control
same,T/C,"dose: 200.0 mg/kg/injection, schedule: Q01DX009 (ip), vehicle: saline",113 % of control
same,T/C,"dose: 400.0 mg/kg/injection, schedule: Q01DX009 (ip), vehicle: saline",109 % of control
C=C(C)C(=O)OCCN(C)C (tested in a mixture with another compound),T/C,[11],100 % of control
same,T/C,[12],100 % of control
same,T/C,"dose: 200.0 mg/kg/injection, schedule: Q01DX009 (ip), vehicle: saline with Tween-80",100 % of control
COCC12CCC(OC)C34C5CC6(O)C(OC)C=C(C5C6OC(=O)c5ccccc5)C(C(OC)C13)C4N(C)C2 (stereo not drawn),T/C,"dose: 25.0 mg/kg/injection, schedule: Q01DX009 (ip), vehicle: Klucel (hydroxypropylcellulose) (HPC)",100 % of control
same,T/C,[1],95 % of control
same,T/C,[2],100 % of control
O=c1[nH]c(-c2ccc(Cl)cc2)nc2sc3c(c12)CCCC3,T/C,"dose: 50.0 mg/kg/injection, schedule: Q01DX005 (ip), vehicle: Klucel (hydroxypropylcellulose) (HPC)",86 % of control
same,T/C,"dose: 100.0 mg/kg/injection, schedule: Q01DX005 (ip), vehicle: Klucel (hydroxypropylcellulose) (HPC)",90 % of control
same,T/C,"dose: 200.0 mg/kg/injection, schedule: Q01DX005 (ip), vehicle: Klucel (hydroxypropylcellulose) (HPC)",99 % of control
CC1NC(=O)C2Cc3ccc(O)c(c3)Oc3cccc(c3)C(O)C(C(=O)N2C)N(C)C(=O)C(C)NC(=O)C(Cc2ccc(O)c(O)c2)N(C)C(=O)C(C)NC1=O (stereo not drawn),T/C,"dose: 16.0 mg/kg/injection, schedule: Q01DX009 (ip), vehicle: distilled water + Tween-80",112 % of control
same,T/C,"dose: 32.0 mg/kg/injection, schedule: Q01DX009 (ip), vehicle: distilled water + Tween-80",112 % of control
same,T/C,"dose: 64.0 mg/kg/injection, schedule: Q01DX009 (ip), vehicle: distilled water + Tween-80",122 % of control
COC(=O)c1nc(=S)[nH]c(C(=O)OC)c1C(=O)c1ccc(O)cc1O,T/C,[8],99 % of control
same,T/C,[9],98 % of control
CC(=O)CC(=O)Nc1ccc(Oc2ccccc2)cc1,T/C,"dose: 100.0 mg/kg/injection, schedule: Q04DX002 (ip), vehicle: Klucel (hydroxypropylcellulose) (HPC)",100 % of control
same,T/C,"dose: 200.0 mg/kg/injection, schedule: Q04DX002 (ip), vehicle: Klucel (hydroxypropylcellulose) (HPC)",97 % of control
same,T/C,"dose: 400.0 mg/kg/injection, schedule: Q04DX002 (ip), vehicle: Klucel (hydroxypropylcellulose) (HPC)",96 % of control
O=C(OCc1ccccc1)c1ccc(=O)oc1,T/C,"dose: 100.0 mg/kg/injection, schedule: Q04DX003 (ip), vehicle: Klucel (hydroxypropylcellulose) (HPC)",114 % of control
same,T/C,"dose: 200.0 mg/kg/injection, schedule: Q04DX003 (ip), vehicle: Klucel (hydroxypropylcellulose) (HPC)",110 % of control
CC(=O)NC(C=O)OCC=O (stereo not drawn),T/C,"dose: 44.0 mg/kg/injection, schedule: Q01DX005 (ip), vehicle: water",120 % of control
same,T/C,"dose: 66.0 mg/kg/injection, schedule: Q01DX005 (ip), vehicle: water",121 % of control
same,T/C,"dose: 150.0 mg/kg/injection, schedule: Q01DX005 (ip), vehicle: water",110 % of control
